Test results as given in PubChem BioAssay AID1963974 (Molecular Pharmacology Branch, DTP, NCI, 2024).

Test system: 648629-189-R-J1-PDC spheroids with HUVEC/MSC, viability
Experiment: Anticancer human tumor 648629-189-R-J1-PDC patient-derived bladder carcinoma cell line growth inhibition [PI3K]
Settings: for IC50: curve of first compound; for viability, T/C: stronger effect = lower value
Summary of the method: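 Combination activity was assessed by viability in multicellular tumor spheroids carrying HUVEC and MSC components. Agents were tested with PI3K inhibitors from a Cmax-based top dose (or 10 microM) downward in half-log increments.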

[1] = second compound 0.00316 µM, first compound 0.0316 µM
[2] = second compound 0.00316 µM, first compound 0.1 µM
[3] = second compound 0.00316 µM, first compound 0.316 µM
[4] = second compound 0.00316 µM, first compound 1 µM
[5] = second compound 0.00316 µM, first compound 3.16 µM
[6] = second compound 0.00316 µM, first compound 10 µM
[7] = second compound 0.01 µM, first compound 0.0316 µM
[8] = second compound 0.01 µM, first compound 0.1 µM
[9] = second compound 0.01 µM, first compound 0.316 µM
[10] = second compound 0.01 µM, first compound 1 µM
[11] = second compound 0.01 µM, first compound 3.16 µM
[12] = second compound 0.01 µM, first compound 10 µM
[13] = second compound 0.0316 µM, first compound 0.0316 µM
[14] = second compound 0.0316 µM, first compound 0.1 µM
[15] = second compound 0.0316 µM, first compound 0.316 µM
[16] = second compound 0.0316 µM, first compound 1 µM
[17] = second compound 0.0316 µM, first compound 3.16 µM
[18] = second compound 0.0316 µM, first compound 10 µM
[19] = second compound 0.1 µM, first compound 0.0316 µM
[20] = second compound 0.1 µM, first compound 0.1 µM
[21] = second compound 0.1 µM, first compound 0.316 µM
[22] = second compound 0.1 µM, first compound 1 µM
[23] = second compound 0.1 µM, first compound 3.16 µM
[24] = second compound 0.1 µM, first compound 10 µM
[25] = second compound 0.316 µM, first compound 0.0316 µM
[26] = second compound 0.316 µM, first compound 0.1 µM
[27] = second compound 0.316 µM, first compound 0.316 µM
[28] = second compound 0.316 µM, first compound 1 µM
[29] = second compound 0.316 µM, first compound 3.16 µM
[30] = second compound 0.316 µM, first compound 10 µM
[31] = second compound 1 µM, first compound 0.0316 µM
[32] = second compound 1 µM, first compound 0.1 µM
[33] = second compound 1 µM, first compound 0.316 µM
[34] = second compound 1 µM, first compound 1 µM
[35] = second compound 1 µM, first compound 3.16 µM
[36] = second compound 1 µM, first compound 10 µM
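Also: spheroids exposed to agents for seven days before reading.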
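For viability, T/C in this document: percent of vehicle control luminescence where 100% = DMSO treated spheroids.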

## CC1(C)CCC(Nc2ncc(C(F)(F)F)c(-c3c[nH]c4c(P(C)(C)=O)c(C#N)ccc34)n2)CN1 (stereo unspecified) + CC(Nc1ccc2c(c1)OCCn1cc(N3C(=O)OCC3C(F)F)nc1-2)C(N)=O
Second compound 0.00316 µM
  IC50: < 31.6 nM
Second compound 0.01 µM
  IC50: < 31.6 nM
Second compound 0.0316 µM
  IC50: < 31.6 nM
Second compound 0.1 µM
  IC50: < 31.6 nM
Second compound 0.316 µM
  IC50: < 31.6 nM
Second compound 1 µM
  IC50: < 31.6 nM
[1]
  viability, T/C: 27.7%
[2]
  viability, T/C: 27.2%
[3]
  viability, T/C: 26.8%
[4]
  viability, T/C: 35.4%
[5]
  viability, T/C: 38.7%
[6]
  viability, T/C: 2.42%
[7]
  viability, T/C: 25.3%
[8]
  viability, T/C: 25.8%
[9]
  viability, T/C: 26.3%
[10]
  viability, T/C: 31.1%
[11]
  viability, T/C: 38.2%
[12]
  viability, T/C: 3.09%
[13]
  viability, T/C: 26.6%
[14]
  viability, T/C: 23.4%
[15]
  viability, T/C: 26.6%
[16]
  viability, T/C: 28.5%
[17]
  viability, T/C: 37.6%
[18]
  viability, T/C: 3%
[19]
  viability, T/C: 24.1%
[20]
  viability, T/C: 23.4%
[21]
  viability, T/C: 26.1%
[22]
  viability, T/C: 23.4%
[23]
  viability, T/C: 33.1%
[24]
  viability, T/C: 2.67%
[25]
  viability, T/C: 23.4%
[26]
  viability, T/C: 25.8%
[27]
  viability, T/C: 23.8%
[28]
  viability, T/C: 28.9%
[29]
  viability, T/C: 29.8%
[30]
  viability, T/C: 2.95%
[31]
  viability, T/C: 19.8%
[32]
  viability, T/C: 22.6%
[33]
  viability, T/C: 26.1%
[34]
  viability, T/C: 23.1%
[35]
  viability, T/C: 27.2%
[36]
  viability, T/C: 1.52%

## C[C@@H](NC(=O)c1ncnc(N)c1Cl)c1ncc(C(=O)Nc2cc(C(F)(F)F)c(Cl)cn2)s1 + CC(Nc1ncnc2nc[nH]c12)c1cc2cccc(Cl)c2c(=O)n1-c1ccccc1
Second compound 0.0316 µM
  IC50: > 10000 nM
Second compound 0.1 µM
  IC50: > 10000 nM
Second compound 0.316 µM
  IC50: > 10000 nM
Second compound 1 µM
  IC50: > 10000 nM
Second compound 3.16 µM
  IC50: > 10000 nM
Second compound 10 µM
  IC50: > 10000 nM
[13]
  viability, T/C: 98.8%
[14]
  viability, T/C: 104%
[15]
  viability, T/C: 111%
[16]
  viability, T/C: 108%
[17]
  viability, T/C: 118%
[18]
  viability, T/C: 130%
[19]
  viability, T/C: 113%
[20]
  viability, T/C: 97.2%
[21]
  viability, T/C: 112%
[22]
  viability, T/C: 109%
[23]
  viability, T/C: 112%
[24]
  viability, T/C: 113%
[25]
  viability, T/C: 105%
[26]
  viability, T/C: 110%
[27]
  viability, T/C: 102%
[28]
  viability, T/C: 118%
[29]
  viability, T/C: 112%
[30]
  viability, T/C: 115%
[31]
  viability, T/C: 115%
[32]
  viability, T/C: 89%
[33]
  viability, T/C: 113%
[34]
  viability, T/C: 114%
[35]
  viability, T/C: 113%
[36]
  viability, T/C: 116%
Second compound 3.16 µM, first compound 0.0316 µM
  viability, T/C: 112%
Second compound 3.16 µM, first compound 0.1 µM
  viability, T/C: 98.5%
Second compound 3.16 µM, first compound 0.316 µM
  viability, T/C: 98.3%
Second compound 3.16 µM, first compound 1 µM
  viability, T/C: 104%
Second compound 3.16 µM, first compound 3.16 µM
  viability, T/C: 107%
Second compound 3.16 µM, first compound 10 µM
  viability, T/C: 104%
Second compound 10 µM, first compound 0.0316 µM
  viability, T/C: 103%
Second compound 10 µM, first compound 0.1 µM
  viability, T/C: 81%
Second compound 10 µM, first compound 0.316 µM
  viability, T/C: 78.8%
Second compound 10 µM, first compound 1 µM
  viability, T/C: 86.5%
Second compound 10 µM, first compound 3.16 µM
  viability, T/C: 91.8%
Second compound 10 µM, first compound 10 µM
  viability, T/C: 85.1%

## Cn1ncc(Cl)c1-c1cc(C(=O)NC(CN)Cc2cccc(F)c2)sc1Cl (stereo unspecified) + COc1c(OCCCN2CCOCC2)ccc2c3n(c(=NC(=O)c4cnc(N)nc4)nc12)CCN3
Second compound 0.00316 µM
  IC50: 620 nM
Second compound 0.01 µM
  IC50: 639 nM
Second compound 0.0316 µM
  IC50: 419 nM
Second compound 0.1 µM
  IC50: 110 nM
Second compound 0.316 µM
  IC50: < 31.6 nM
Second compound 1 µM
  IC50: < 31.6 nM
[1]
  viability, T/C: 110%
[2]
  viability, T/C: 102%
[3]
  viability, T/C: 59.3%
[4]
  viability, T/C: 40.3%
[5]
  viability, T/C: 23.1%
[6]
  viability, T/C: 7.29%
[7]
  viability, T/C: 97.9%
[8]
  viability, T/C: 84%
[9]
  viability, T/C: 70.5%
[10]
  viability, T/C: 35.2%
[11]
  viability, T/C: 22.1%
[12]
  viability, T/C: 6.56%
[13]
  viability, T/C: 84.6%
[14]
  viability, T/C: 78.2%
[15]
  viability, T/C: 53.5%
[16]
  viability, T/C: 32.2%
[17]
  viability, T/C: 16.9%
[18]
  viability, T/C: 4.04%
[19]
  viability, T/C: 67.5%
[20]
  viability, T/C: 52.1%
[21]
  viability, T/C: 34%
[22]
  viability, T/C: 21.8%
[23]
  viability, T/C: 10.3%
[24]
  viability, T/C: 3.19%
[25]
  viability, T/C: 21.9%
[26]
  viability, T/C: 16.6%
[27]
  viability, T/C: 11.8%
[28]
  viability, T/C: 7.56%
[29]
  viability, T/C: 4.03%
[30]
  viability, T/C: 1.46%
[31]
  viability, T/C: 4.06%
[32]
  viability, T/C: 2.7%
[33]
  viability, T/C: 2.87%
[34]
  viability, T/C: 2.72%
[35]
  viability, T/C: 2.27%
[36]
  viability, T/C: 0.3%
